Results: patent publication US9440969B2, “Compounds and methods for kinase modulation, and indications therefor” (PLEXXIKON INC., priority 2009, dated 2016)

Columns and labels:
[1] = Relative solubility by turbidity in aqueous buffers (pH 1.5, 4.5, 6.8, 7.4); type: physicochemical; settings: for turbidity threshold (L, M, H) 1.4: pH 1.5 buffer (SGF); for turbidity threshold (L, M, H) 4.5: pH 4.5 buffer (SIF); for turbidity threshold (L, M, H) 6.8: pH 6.8 buffer (SIF); for turbidity threshold (L, M, H) 7.4: pH 7.4 buffer (HEPES)
Outline: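 2-fold DMSO dilution series from 25 mM stocks were added to SGF (0.5M NaCl, pH 1.5), SIF (0.05M NaH2PO4, pH 4.5/6.8) or HEPES (10 mM, 150 mM NaCl, pH 7.4). Absorbance at 490, 535 and 650 nm; value is the concentration crossing OD 0.01, averaged over wavelengths. Low <31.3 μM, moderate 31.3–250 μM, high >250 μM.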

[2] = test system: A375 melanoma (B-Raf V600E mutation); experiment: A375 cell growth inhibition (ATPlite luminescence); type: cell-based; settings: Homo sapiens, A-375, 72 h, A375 cells, incubated 3 days with compound
Description: Compounds are assessed in a variety of cell based assays. For example human cell lines with B-Raf V600E mutation (A375 melanoma, SKMEL3 melanoma, and COLO205 colon adenocarcinoma), as well as tumorigenic cell lines with wild-type B-RAF (SW620 colon adenocarcinoma) or with Ras mutations (SKMEL2 melanoma and IPC298 melanoma). Similar assays may be used to assess additional tumorigenic cell lines with Ras mutations, including, but not limited to, M202, M207, M243, M244, M296, S117, HCT116, HCT15, DLD1, MiaPaCa, A549, NCI-H23, NCI-H460, HOP62, MDA-MB231, Hs-578T, HL60, MOLT-4, and CCRF-CEM.
On day 1, cells are counted, then centrifuged in a conical tube for 5 minutes at 1000 rpm. The supernatant is removed and cells are re-suspended as follows: • SW620 (ATCC catalog #CCL-27): resuspend in Leibovitz's L-15 medium, 2 mM L-glutamine, 10% fetal bovine serum to 6×10^4 cells/mL. • A375 (ATCC catalog #CRL-1619): resuspend in Dulbecco's modified Eagle's medium, 4 mM L-glutamine, 4.5 g/L D-glucose, 10% fetal bovine serum to 6×10^4 cells/mL. • COLO205 (ATCC catalog #CCL-222): resuspend in RPMI 1640, 2 mM L-glutamine, 1.5 g/L sodium bicarbonate, 4.5 g/L D-glucose, 10 mM HEPES, 1.0 mM sodium pyruvate, 10% fetal bovine serum to 6×10^4 cells/mL. • SKMEL2 (ATCC catalog #HTB-68): resuspend in Minimum Eagle essential medium, 2 mM L-glutamine, 1.5 g/L sodium bicarbonate, 0.1 mM non-essential amino acids, 1.0 mM sodium pyruvate, 10% fetal bovine serum to 6×10^4 cells/mL. • SKMEL3 (ATCC catalog #HTB-69): resuspend in McCoy's 5A medium, 1.5 mM L-glutamine, 15% fetal bovine serum to 6×10^4 cells/mL. • IPC298 (DSMZ catalog #ACC 251): resuspend in RPMI 1640, 2 mM L-glutamine, 10% fetal bovine serum to 6×10^4 cells/mL.
The cells are plated, 50 μL in each well of a 96-well dish (Corning 3610) and incubated at 37° C. in 5% CO2 overnight, cells plated to a final concentration of cells as follows:
On day 2, compound at a maximum concentration of 5 mM is serially diluted 1:3 (e.g. 10 μL with 30 μL dimethyl sulfoxide) for a total of 8 point titration with DMSO as a control. A 1 μL aliquot of each dilution point and control is added to 249 μL growth media and 50 μL is added to a well containing cells, providing 10 μM compound at the maximum concentration point. The cells are incubated for 3 days at 37° C. in 5% CO2.
On day 5, ATPlite 1 step Luminescence Assay System (Perkin Elmer #6016739) is brought to room temperature along with the cell cultures. ATPlite is added 25 μL to each well, shake for 2 minutes, and the cells are incubated at room temperature for 10 minutes, then luminescence is read on Safire reader. The measured luminescence correlates directly with cell number, such that the reading as a function of compound concentration is used to determine the IC50 value.
It is understood that the results of these assays may vary as assay conditions are varied. Inhibition levels determined under the conditions described herein represent a relative activity for the compounds tested under the specific conditions employed. The cell based assays are likely to show variability due to the complexity of the system and the sensitivity thereof to any changes in the assay conditions. […] Results for compounds that are tested and show substantially no inhibition below the highest tested concentration are represented as “-” in the tables below. In some instances, the compounds were not tested in all of the assays, or assay results were not valid, as indicated by NA in the tables below.

| Structure (SMILES) | turbidity threshold (L, M, H) 1.4 [1] | turbidity threshold (L, M, H) 4.5 [1] | turbidity threshold (L, M, H) 6.8 [1] | turbidity threshold (L, M, H) 7.4 [1] | IC50 [2] [µM] |
| --- | --- | --- | --- | --- | --- |
| CCCS(=O)(=O)Nc1ccc(F)c(C(=O)c2c[nH]c3ncc(-c4cnn(C5CCNCC5)c4)cc23)c1F [P-1002, Propane-1-sulfonic acid {2,4-difluoro-3-[5-(1-piperidin-4-yl-1H-pyrazol-4-yl)-1H-pyrrolo[2,3-b]pyridine-3-carbonyl]-phenyl}-amide] | M (moderate solubility if the threshold concentration is 31.3 μM to 250 μM) | M (moderate solubility if the threshold concentration is 31.3 μM to 250 μM) | L (low solubility if the threshold concentration is <31.3 μM) | M (moderate solubility if the threshold concentration is 31.3 μM to 250 μM) | – |
| O=C(c1c(F)ccc(NS(=O)(=O)c2ccc(C(F)(F)F)cc2)c1F)c1c[nH]c2ncc(-c3cnn(C4CCNCC4)c3)cc12 [P-1004, N-{2,4-Difluoro-3-[5-(1-piperidin-4-yl-1H-pyrazol-4-yl)-1H-pyrrolo[2,3-b]pyridine-3-carbonyl]-phenyl}-4-trifluoromethyl-benzenesulfonamide] | L (low solubility if the threshold concentration is <31.3 μM) | L (low solubility if the threshold concentration is <31.3 μM) | L (low solubility if the threshold concentration is <31.3 μM) | L (low solubility if the threshold concentration is <31.3 μM) | – |
| Cc1ncc(-c2cnc3[nH]cc(C(=O)c4c(F)ccc(NS(=O)(=O)c5cc(F)ccc5F)c4F)c3c2)cn1 [P-1503, N-{2,4-Difluoro-3-[5-(2-methyl-pyrimidin-5-yl)-1H-pyrrolo[2,3-b]pyridine-3-carbonyl]-phenyl}-2,5-difluoro-benzenesulfonamide] | L (low solubility if the threshold concentration is <31.3 μM) | L (low solubility if the threshold concentration is <31.3 μM) | L (low solubility if the threshold concentration is <31.3 μM) | M (moderate solubility if the threshold concentration is 31.3 μM to 250 μM) | – |
| CCCS(=O)(=O)Nc1ccc(F)c(C(=O)c2c[nH]c3ncc(-c4cccc5nn(C)cc45)cc23)c1F [P-0015, Propane-1-sulfonic acid {2,4-difluoro-3-[5-(2-methyl-2H-indazol-4-yl)-1H-pyrrolo[2,3-b]pyridine-3-carbonyl]-phenyl}-amide] | L (low solubility if the threshold concentration is <31.3 μM) | L (low solubility if the threshold concentration is <31.3 μM) | L (low solubility if the threshold concentration is <31.3 μM) | L (low solubility if the threshold concentration is <31.3 μM) | < 1 |
| CCCS(=O)(=O)Nc1ccc(F)c(C(=O)c2c[nH]c3ncc(-c4ccc5[nH]ncc5c4)cc23)c1F [P-0001, propane-1-sulfonic acid {2,4-difluoro-3-[5-(1H-indazol-5-yl)-1H-pyrrolo[2,3-b]pyridine-3-carbonyl]-phenyl}-amide] | – | – | – | – | < 1 |
| Cc1ccc(-c2cnc3[nH]cc(C(=O)c4c(F)ccc(NS(=O)(=O)c5cc(F)ccc5F)c4F)c3c2)cn1 [P-1408, N-{2,4-Difluoro-3-[5-(6-methyl-pyridin-3-yl)-1H-pyrrolo[2,3-b]pyridine-3-carbonyl]-phenyl}-2,5-difluoro-benzenesulfonamide] | M (moderate solubility if the threshold concentration is 31.3 μM to 250 μM) | L (low solubility if the threshold concentration is <31.3 μM) | L (low solubility if the threshold concentration is <31.3 μM) | L (low solubility if the threshold concentration is <31.3 μM) | – |
| CCCS(=O)(=O)Nc1ccc(F)c(C(=O)c2c[nH]c3ncc(-c4ccc5[nH]ccc5c4)cc23)c1F [P-0012, Propane-1-sulfonic acid {2,4-difluoro-3-[5-(1H-indol-5-yl)-1H-pyrrolo[2,3-b]pyridine-3-carbonyl]-phenyl}-amide] | L (low solubility if the threshold concentration is <31.3 μM) | L (low solubility if the threshold concentration is <31.3 μM) | L (low solubility if the threshold concentration is <31.3 μM) | L (low solubility if the threshold concentration is <31.3 μM) | < 1 |
| CCCS(=O)(=O)Nc1ccc(F)c(C(=O)c2c[nH]c3ncc(-c4csc(-n5ccnc5C)n4)cc23)c1F [P-1101, Propane-1-sulfonic acid (2,4-difluoro-3-{5-[2-(2-methyl-imidazol-1-yl)-thiazol-4-yl]-1H-pyrrolo[2,3-b]pyridine-3-carbonyl}-phenyl)-amide] | – | – | – | – | < 1 |
| CCCS(=O)(=O)Nc1ccc(F)c(C(=O)c2c[nH]c3ncc(-c4ccc5cn(C)nc5c4)cc23)c1F [P-0011, Propane-1-sulfonic acid {2,4-difluoro-3-[5-(2-methyl-2H-indazol-6-yl)-1H-pyrrolo[2,3-b]pyridine-3-carbonyl]-phenyl}-amide] | L (low solubility if the threshold concentration is <31.3 μM) | L (low solubility if the threshold concentration is <31.3 μM) | M (moderate solubility if the threshold concentration is 31.3 μM to 250 μM) | L (low solubility if the threshold concentration is <31.3 μM) | < 1 |
| CNC(=O)n1ncc2cc(-c3cnc4[nH]cc(C(=O)c5c(F)ccc(NS(=O)(=O)c6cc(F)ccc6F)c5F)c4c3)ccc21 [P-0003, 5-{3-[3-(2,5-Difluoro-benzenesulfonylamino)-2,6-difluoro-benzoyl]-1H-pyrrolo[2,3-b]pyridin-5-yl}-indazole-1-carboxylic acid methylamide] | – | – | – | – | < 1 |
| CCCS(=O)(=O)Nc1ccc(F)c(C(=O)c2c[nH]c3ncc(-c4ccc5c(cnn5C(C)=O)c4)cc23)c1F [P-0007, propane-1-sulfonic acid {3-[5-(1-acetyl-1H-indazol-5-yl)-1H-pyrrolo[2,3-b]pyridine-3-carbonyl]-2,4-difluoro-phenyl}-amide] | – | – | – | – | > 1 |
| CCCS(=O)(=O)Nc1ccc(F)c(C(=O)c2c[nH]c3ncc(-c4ccc5nn(C)cc5c4)cc23)c1F [P-0010, Propane-1-sulfonic acid {2,4-difluoro-3-[5-(2-methyl-2H-indazol-5-yl)-1H-pyrrolo[2,3-b]pyridine-3-carbonyl]-phenyl}-amide] | L (low solubility if the threshold concentration is <31.3 μM) | L (low solubility if the threshold concentration is <31.3 μM) | L (low solubility if the threshold concentration is <31.3 μM) | L (low solubility if the threshold concentration is <31.3 μM) | < 1 |
